We go through ten compounds from ChEMBL document CHEMBL1201862, “PubChem BioAssay data set” (2004).

Holding throughout (test): inhibition of tumour cell growth, NCI panel, 48 h
The subject of assay [1] is 786-0.
The test system of assay [2] is COLO 205.
The test system of assay [3] is HL-60.
The test system of assay [4] is HT-29.
The subject of assay [5] is Hs-578T.
The test system of assay [6] is KM12.
Assay [7] relates to NCI-H23.
The test system of assay [8] is NCI-H460.
In assay [9] the test system is NCI-H522.
Assay [10] relates to NCI/ADR-RES.
Assay [11] relates to OVCAR-5.
Assay [12] has as its system PC-3.
In assay [13] the test system is RPMI-8226.
The subject of assay [14] is RXF 393.
The test system of assay [15] is SF-295.
Assay [16] concerns SN12C.
Assay [17] concerns SNB-19.
Assay [18] concerns SW-620.
In assay [19] the test system is TK-10.
The test system of assay [20] is U-251.

SMILES strings stand for the structures.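 Five concentrations, 48 hours, 96-well plates. GI50 = concentration required for 50% inhibition of growth.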 Activity calls are given as the source filed them. No stated cut-off is given here; in the data, active = GI50 up to about 1.1 µM and inactive = higher.

For the compound `O=C(Cn1c(=O)ccn(C2OC(CO)C(O)C2F)c1=O)c1ccc(F)cc1` (stereo not given), the GI50 in [1], in assay [2], in assay [3], in [4], in [5] and in assay [6] was > 100 µM (inactive) throughout. For the same compound, the GI50 in [7], in assay [8], in assay [9], in assay [10], in [11] and in [12] was > 100 µM (inactive) throughout. Besides, the GI50 in [13], in [14], in [15], in assay [16], in assay [17] and in assay [18] was > 100 µM (inactive) in each case. Besides, the GI50 in [19] and in assay [20] was > 100 µM (inactive) throughout.

As to `COc1ccc(/C=C2\CN(C)C/C(=C\c3ccc(OC)c(OC)c3OC)C2=O)c(OC)c1OC`, the GI50 is 0.0887 µM (active) in assay [1]; 0.238 µM (active) in assay [2]; 0.0191 µM (active) in assay [3]; 0.171 µM (active) in assay [4]; 0.303 µM (active) in [5]; 0.0859 µM (active) in [6]. Besides, the GI50 is 0.0579 µM (active) in assay [7]; 0.146 µM (active) in assay [8]; 0.184 µM (active) in assay [9]; 0.145 µM (active) in assay [10]; 0.232 µM (active) in [11]; 0.231 µM (active) in assay [12]. For the same compound, the GI50 in assay [13] is 0.0292 µM (active); in assay [14], 0.167 µM (active); in assay [15], 0.272 µM (active); in assay [16], 0.101 µM (active); in assay [17], 0.237 µM (active); in [18] it was 0.155 µM (active). In addition, the GI50 in assay [19] was 1.01 µM (active); in assay [20], 0.0333 µM (active).

As to `NS(=O)(=O)c1nn2c(Br)c(-c3ccccc3)nc2s1`, the GI50 in [1] was 2.45 µM (inactive); in [2], 5.24 µM (inactive); in [3], 3.66 µM (inactive); in [4] it was 2.49 µM (inactive); in assay [5], 9.48 µM (inactive); in assay [6], 4.85 µM (inactive). The GI50 in assay [7] was 3.48 µM (inactive); in assay [8], 5.98 µM (inactive); in assay [9], 1.61 µM (inactive); in assay [10] it was 3.84 µM (inactive); in [11], 11.1 µM (inactive); in assay [12], 6.03 µM (inactive). Besides, the GI50 was 2.39 µM (inactive) in assay [13]; 0.847 µM (active) in [14]; 8.97 µM (inactive) in [15]; 2.92 µM (inactive) in [16]; 9.46 µM (inactive) in assay [17]; 3.62 µM (inactive) in assay [18]. Moreover, the GI50 in assay [19] was 6.37 µM (inactive); in [20] it was 4.59 µM (inactive).

Turning to `Cc1nnc(-n2c(O)cc(=O)n(-c3ccccc3)c2=S)nc1/C=C/c1ccc(N(C)C)cc1`, the GI50 in assay [1] was 12.3 µM (inactive); in assay [2], 7.23 µM (inactive); in assay [3], 2.7 µM (inactive); in assay [4] it was 5 µM (inactive); in [5], 4.99 µM (inactive); in assay [6], 7.05 µM (inactive). For the same compound, the GI50 in [7] is 8.36 µM (inactive); in assay [8] it was 8.79 µM (inactive); in assay [9], 1.32 µM (inactive); in assay [10], 14.3 µM (inactive); in [11], 27.4 µM (inactive); in assay [12] it was 8.41 µM (inactive). For the same compound, the GI50 was 11.2 µM (inactive) in [13]; 17.5 µM (inactive) in assay [14]; 12.9 µM (inactive) in assay [15]; > 43.5 µM (inactive) in assay [16]; 20.4 µM (inactive) in assay [17]; 12.9 µM (inactive) in [18]. Moreover, the GI50 is > 39.4 µM (inactive) in assay [19] and 10.1 µM (inactive) in [20].

`COC1C(=O)N(SC)C1c1ccccc1Cl` (stereo not given): the GI50 is 18.7 µM (inactive) in assay [1]; 51.8 µM (inactive) in [2]; 16.7 µM (inactive) in assay [3]; 20.3 µM (inactive) in assay [4]; > 100 µM (inactive) in assay [5]; > 100 µM (inactive) in assay [6]. Moreover, the GI50 in assay [7] was > 100 µM (inactive); in [8], > 100 µM (inactive); in assay [9], 16.6 µM (inactive); in assay [10], 68.1 µM (inactive); in assay [11], 17.8 µM (inactive); in [12] it was 86.7 µM (inactive). Further, the GI50 in assay [13] is 19.6 µM (inactive); in [14] it was > 100 µM (inactive); in assay [15], > 100 µM (inactive); in assay [16], 22.8 µM (inactive); in assay [17] it was > 100 µM (inactive); in assay [18], 21.4 µM (inactive). Moreover, the GI50 is > 100 µM (inactive) in [19] and 52.4 µM (inactive) in assay [20].

As to `Cc1sc2nc(-c3ccc(Cl)c([N+](=O)[O-])c3)c(/C=N/NC(=N)N)n2c1C`, the GI50 in assay [1] was 0.684 µM (active); in assay [2], 0.282 µM (active); in [3] it was 1.71 µM (inactive); in assay [4], 1.35 µM (inactive); in [5], 1.79 µM (inactive); in assay [6], 0.45 µM (active). Moreover, the GI50 was 1.73 µM (inactive) in assay [7]; 1.63 µM (inactive) in assay [8]; 1.71 µM (inactive) in assay [9]; 2.04 µM (inactive) in [10]; 1.58 µM (inactive) in assay [11]; 1.52 µM (inactive) in [12]. Also, the GI50 in assay [13] is 1.35 µM (inactive); in assay [14], 1.52 µM (inactive); in assay [15], 1.76 µM (inactive); in assay [16], 1.31 µM (inactive); in assay [17] it was 1.48 µM (inactive); in assay [18] it was 0.247 µM (active). In addition, the GI50 in assay [19] was 1.75 µM (inactive); in assay [20], 0.341 µM (active).

Turning to `CN1C[C@@H]2CCCN2P1Oc1cccc2cccnc12` (stereo not given in full), the GI50 is > 100 µM (inactive) in [1]; 30.5 µM (inactive) in assay [2]; 16.1 µM (inactive) in assay [3]; 33 µM (inactive) in assay [4]; 17.5 µM (inactive) in assay [5]; 40.2 µM (inactive) in [6]. Besides, the GI50 in assay [7] is 17.9 µM (inactive); in [8], 35.4 µM (inactive); in assay [9] it was 18.1 µM (inactive); in assay [10] it was 19.8 µM (inactive); in [11], 32.6 µM (inactive); in [12] it was 27.5 µM (inactive). In addition, the GI50 in [13] is 13.2 µM (inactive); in assay [14] it was > 100 µM (inactive); in assay [15] it was 85.7 µM (inactive); in [16], 22.9 µM (inactive); in assay [17], > 100 µM (inactive); in assay [18], 18.7 µM (inactive). The GI50 in assay [19] was 75.7 µM (inactive); in [20], 35.2 µM (inactive).

Turning to `CN(C)CCc1c2c(nc3ccccc13)C(=O)c1cccnc1C2=O`, the GI50 in assay [1] is 0.121 µM (active); in assay [2], 1.97 µM (inactive); in [3], 0.0486 µM (active); in [4] it was 1.55 µM (inactive); in assay [5] it was 1.15 µM (inactive); in assay [6], 0.173 µM (active). The GI50 in assay [7] is 0.322 µM (active); in [8], 0.0826 µM (active); in assay [9], 0.175 µM (active); in assay [10], 0.119 µM (active); in [11], 1.18 µM (inactive); in [12] it was 0.313 µM (active). In addition, the GI50 in assay [13] is 0.488 µM (active); in assay [14], 0.172 µM (active); in [15], 0.203 µM (active); in assay [16], 0.277 µM (active); in [17], 0.652 µM (active); in assay [18], 0.0873 µM (active). Also, the GI50 in assay [19] is 1.3 µM (inactive); in assay [20] it was 0.176 µM (active).

On to `CC(=O)CCNc1ccc(-c2cc(-c3ccc(N(C)C)cc3)nc3ccc4ccccc4c23)cc1`, for which the GI50 in [1] is 22.4 µM (inactive); in assay [2], 26.9 µM (inactive); in assay [3], 3.7 µM (inactive); in assay [4], 66.2 µM (inactive); in assay [5], 39.2 µM (inactive); in [6], 27.5 µM (inactive). Moreover, the GI50 is > 100 µM (inactive) in [7]; 35.2 µM (inactive) in assay [8]; > 100 µM (inactive) in [9]; 97.9 µM (inactive) in assay [10]; > 100 µM (inactive) in assay [11]; 13.2 µM (inactive) in assay [12]. Moreover, the GI50 in assay [13] was 11.7 µM (inactive); in [14] it was 12.3 µM (inactive); in assay [15] it was > 59.4 µM (inactive); in [16], 33.5 µM (inactive); in assay [17], > 100 µM (inactive); in assay [18] it was > 100 µM (inactive). Also, the results for the GI50 in assay [19] and in assay [20] were > 100 µM (inactive) and > 84.9 µM (inactive), respectively.

In the case of `NC1=NC(c2ccc(Cl)cc2)N(c2ccc(S(=O)(=O)Nc3ncccn3)cc2)C(N)=N1` (stereo not given), the GI50 in assay [1] was > 100 µM (inactive); in assay [2], > 100 µM (inactive); in assay [3] it was 0.178 µM (active); in assay [4], > 100 µM (inactive); in [5], > 100 µM (inactive); in [6], > 100 µM (inactive). The GI50 in assay [7], in [8], in [9], in assay [10], in assay [11] and in assay [12] was > 100 µM (inactive) each time. The GI50 in assay [13], in [14], in assay [15], in [16], in assay [17] and in assay [18] was > 100 µM (inactive) in each case. Also, the GI50 in assay [19] and in [20] was > 100 µM (inactive) each time.
